Experimental data from patent US9751889B2 (CRYSTAL PHARMATECH INC., priority 2013, dated 2017).
≈ marks a conversion by molar mass, not a printed value. Read-outs that look alike come from different tables or passages of the source. Blank lines part the entries; values can stand above or below the compound they belong to.

Assays:
physchem = details: for Solubility / solubility at 1 h / solubility at 4 h / solubility at 24 h: RT; for Solubility: listed as WO2013184572A1 Form A; for solubility at 1 h / solubility at 4 h / solubility at 24 h: thermodynamic from solid
Method: 2. Add 3 mL of bio-relevant medium into each vial.
3. Cap the vials and keep all the suspension samples stirring at RT (room temperature) using a rolling incubator at a rate of 25 r/min.
4. Sample at 1 h, 4 h and 24 h respectively. About 0.6 mL aliquot of the suspension is transferred per time from solubility vial into a centrifuge filtration tube (pore size of 0.45 μm).
5. Centrifuge filtration tubes at a rate of 8500 rpm for 3 minutes at RT, collect 0.2 mL of supernatant for HPLC quantification determination and collect the rest of solution for pH measurement, and separate the solid for XRPD characterization.

[1] = cited from earlier work
[2] = dish open, 180 days; for Chemical purity: HPLC; for Final form: XRPD
Method: The chemical and physical stabilities of the samples were evaluated by high performance liquid chromatography (HPLC) and XRPD.

[3] = DVS, 25° C.
Method: Dynamic Vapor Sorption (DVS)
Dynamic Vapor Sorption (DVS) was measured via a SMS (Surface Measurement Systems) DVS Intrinsic. The relative humidity at 25° C. were calibrated against deliquescence point of LiCl, Mg(NO3)2 and KCl. Typical Parameters for DVS test are listed below.

Solubility (physchem; FeSSIF, time point 1 h): 100 µg/mL (≈ 227 µM) | Solubility (physchem; FeSSIF, time point 4 h): 110 µg/mL (≈ 250 µM) | Solubility (physchem; FeSSIF, time point 24 h): 130 µg/mL (≈ 295 µM) | Solubility (physchem; SGF, time point 1 h): 360 µg/mL (≈ 817 µM) | Solubility (physchem; SGF, time point 4 h): 390 µg/mL (≈ 885 µM) | Solubility (physchem; SGF, time point 24 h): 380 µg/mL (≈ 863 µM)
Structure (SMILES): C=CC(=O)N1CCC[C@@H](n2nc(-c3ccc(Oc4ccccc4)cc3)c3c(N)ncnc32)C1 [Form A, 1-[(3R)-3-[4-amino-3-(4-phenoxyphenyl)-1H-pyrazolo [3,4-d]pyrimidin-1-yl]piperidin-1-yl]prop-2-en-1-one, reference compound]
Solubility ([1]; pH=8): 13 µg/mL (≈ 29.5 µM)

Solubility in comparison to crystalline Form A (WO2013184572A1) (physchem; FeSSIF and SGF): higher solubility | solubility at 1 h (physchem; fed state simulated intestinal fluid (FeSSIF), fessif, time point 1 h): 150 µg/mL (≈ 341 µM) | solubility at 4 h (physchem; fed state simulated intestinal fluid (FeSSIF), fessif, time point 4 h): 160 µg/mL (≈ 363 µM) | solubility at 24 h (physchem; fed state simulated intestinal fluid (FeSSIF), fessif, time point 24 h): 160 µg/mL (≈ 363 µM) | solubility at 1 h (physchem; simulated gastric fluid (SGF), simulated gastric fluid, SGF, time point 1 h): 500 µg/mL (≈ 1140 µM) | solubility at 4 h (physchem; simulated gastric fluid (SGF), simulated gastric fluid, SGF, time point 4 h): 500 µg/mL (≈ 1140 µM) | solubility at 24 h (physchem; simulated gastric fluid (SGF), simulated gastric fluid, SGF, time point 24 h): 480 µg/mL (≈ 1090 µM) | Chemical purity ([2]; 25° C./60% RH): 98.98% | Final form ([2]; 25° C./60% RH): Form I | Chemical purity ([2]; 40° C./75% RH): 98.98% | Final form ([2]; 40° C./75% RH): Form I | Water uptake under 80% RH ([3]; 80% RH): 0.19% | Water uptake under 80% RH ([3]; 80% RH, listed as Ibrutinib Form I): 0.19% | Water uptake under 95% RH ([3]; 95% RH): 0.48% | Hygroscopicity (European pharmacopoeia criteria) ([3]; 80% RH): non-hygroscopic
Structure (SMILES): C=CC(=O)N1CCC[C@@H](n2nc(-c3ccc(Oc4ccccc4)cc3)c3c(N)ncnc32)C1 [Form I, 1-[(3R)-3-[4-amino-3-(4-phenoxyphenyl)-1H-pyrazolo [3,4-d]pyrimidin-1-yl]piperidin-1-yl]prop-2-en-1-one]

Structure (SMILES): C=CC(=O)N1CCC[C@@H](n2nc(-c3ccc(Oc4ccccc4)cc3)c3c(N)ncnc32)C1 [Form B, 1-[(3R)-3-[4-amino-3-(4-phenoxyphenyl)-1H-pyrazolo [3,4-d]pyrimidin-1-yl]piperidin-1-yl]prop-2-en-1-one]
Solubility ([1]; pH=7.42): 9.6 µg/mL (≈ 21.8 µM)
